Laboratory results from ChEMBL document CHEMBL1201862, “PubChem BioAssay data set” (2004).
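Growth conditions: 96-well plates. Treatment: test compound, 48 hours, 5 concentrations. Analysis: linear interpolation between bracketing concentrations; unreached endpoints set to highest concentration. GI50 is the concentration that inhibits growth by half.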 Active and inactive are the calls of the source. No stated cut-off is given here; in the data, active = GI50 up to about 1.1 µM and inactive = higher.

Key:
Test in all cases: inhibition of tumour cell growth, NCI panel, 48 h
[1] = tested on: A549
[2] = tested on: ACHN
[3] = tested on: HCT-116
[4] = tested on: IGROV-1
[5] = tested on: LOX IMVI
[6] = tested on: MDA-MB-231
[7] = tested on: MDA-N
[8] = tested on: MOLT-4
[9] = tested on: Malme-3M
[10] = tested on: NCI-H460
[11] = tested on: NCI/ADR-RES
[12] = tested on: OVCAR-4
[13] = tested on: OVCAR-5
[14] = tested on: RXF 393
[15] = tested on: SNB-19
[16] = tested on: SR
[17] = tested on: T47D
[18] = tested on: TK-10
[19] = tested on: U-251
[20] = tested on: SK-OV-3

Measured: GI50

COc1ccc(/N=N/C(=O)NC(CC(C)C)C(=O)NC(C)C(=O)O)cc1 (stereo not drawn)
inactive: [1] 3.32 µM | [2] 1.53 µM | [3] > 34.4 µM | [4] 18.6 µM | [5] 4.68 µM | [6] > 23.4 µM | [7] 10.8 µM | [8] 4.22 µM | [9] 29.2 µM | [10] 9.66 µM | [11] > 67.9 µM | [12] > 69.5 µM | [13] > 100 µM | [14] > 100 µM | [15] > 100 µM | [16] 12.7 µM | [17] 3.63 µM | [18] > 29.9 µM | [19] > 100 µM

O=C(Cc1ccccc1)N/N=C1\C(=O)Nc2ccccc21
inactive: [1] > 100 µM | [2] > 100 µM | [3] > 100 µM | [4] > 100 µM | [6] 18.8 µM | [7] > 100 µM | [8] > 100 µM | [9] > 100 µM | [10] > 100 µM | [11] 52.4 µM | [12] > 100 µM | [13] > 100 µM | [14] > 100 µM | [20] > 100 µM | [15] > 100 µM | [16] > 100 µM | [17] 63.2 µM | [18] > 100 µM | [19] 61.1 µM

CCCn1cnc2c(/N=N/O)ncnc21
inactive: [2] > 100 µM | [3] > 100 µM | [4] > 100 µM | [6] > 100 µM | [7] > 100 µM | [8] > 100 µM | [9] > 100 µM | [10] > 100 µM | [11] > 100 µM | [12] > 100 µM | [13] > 100 µM | [14] > 100 µM | [15] > 100 µM | [16] > 100 µM | [17] > 100 µM | [18] > 100 µM | [19] > 100 µM

C[C@H]1CC[C@@]2(NC1)O[C@H]1C[C@H]3[C@@H]4CC[C@H]5C[C@@H](O)CC[C@]5(C)[C@H]4CC[C@]3(C)[C@H]1[C@@H]2C
inactive: [1] > 100 µM | [2] 39.5 µM | [3] 54.8 µM | [4] 71.6 µM | [5] 45.3 µM | [6] 32.2 µM | [7] > 100 µM | [8] > 100 µM | [10] 33.4 µM | [11] 49.2 µM | [12] 35.6 µM | [13] > 100 µM | [20] > 100 µM | [15] > 100 µM | [16] 22.9 µM | [17] > 100 µM | [18] > 100 µM

COc1cc(CNc2nc3cc(C(F)(F)F)ccc3nc2-c2ccccc2)cc(OC)c1OC
inactive: [1] 37.3 µM | [2] 16.7 µM | [3] 19.1 µM | [4] 25.9 µM | [5] 28.6 µM | [6] 20.6 µM | [7] 30.6 µM | [8] 12.9 µM | [9] 21.3 µM | [10] 25.4 µM | [11] 14.8 µM | [14] 10.6 µM | [15] > 100 µM | [16] 15.9 µM | [17] 1.65 µM | [18] > 100 µM | [19] 27 µM

CCCCN(c1ccccc1)c1ncnc2c1cnn2C
inactive: [1] 51.2 µM | [2] 37.7 µM | [3] 40.6 µM | [4] 34.7 µM | [5] 46.3 µM | [6] 26.6 µM | [7] 42 µM | [8] 8.69 µM | [9] 25.2 µM | [10] 31.6 µM | [11] 22.5 µM | [12] 27.1 µM | [13] 47.4 µM | [14] 23.4 µM | [20] 50.1 µM | [15] 89.9 µM | [17] 20.2 µM | [18] 39.2 µM | [19] 44.2 µM
